Consider seven substances from patent publication US12661388B2, “Assessing and treating acute decompensated heart failure” (Mayo Foundation for Medical Education and Research, priority 2020, dated 2026).

One assay deals with T1, human GC-B (Homo sapiens, UniProt P20594).
T1 construct: host or cells: HEK293
T1 sequence (P20594 23-1047): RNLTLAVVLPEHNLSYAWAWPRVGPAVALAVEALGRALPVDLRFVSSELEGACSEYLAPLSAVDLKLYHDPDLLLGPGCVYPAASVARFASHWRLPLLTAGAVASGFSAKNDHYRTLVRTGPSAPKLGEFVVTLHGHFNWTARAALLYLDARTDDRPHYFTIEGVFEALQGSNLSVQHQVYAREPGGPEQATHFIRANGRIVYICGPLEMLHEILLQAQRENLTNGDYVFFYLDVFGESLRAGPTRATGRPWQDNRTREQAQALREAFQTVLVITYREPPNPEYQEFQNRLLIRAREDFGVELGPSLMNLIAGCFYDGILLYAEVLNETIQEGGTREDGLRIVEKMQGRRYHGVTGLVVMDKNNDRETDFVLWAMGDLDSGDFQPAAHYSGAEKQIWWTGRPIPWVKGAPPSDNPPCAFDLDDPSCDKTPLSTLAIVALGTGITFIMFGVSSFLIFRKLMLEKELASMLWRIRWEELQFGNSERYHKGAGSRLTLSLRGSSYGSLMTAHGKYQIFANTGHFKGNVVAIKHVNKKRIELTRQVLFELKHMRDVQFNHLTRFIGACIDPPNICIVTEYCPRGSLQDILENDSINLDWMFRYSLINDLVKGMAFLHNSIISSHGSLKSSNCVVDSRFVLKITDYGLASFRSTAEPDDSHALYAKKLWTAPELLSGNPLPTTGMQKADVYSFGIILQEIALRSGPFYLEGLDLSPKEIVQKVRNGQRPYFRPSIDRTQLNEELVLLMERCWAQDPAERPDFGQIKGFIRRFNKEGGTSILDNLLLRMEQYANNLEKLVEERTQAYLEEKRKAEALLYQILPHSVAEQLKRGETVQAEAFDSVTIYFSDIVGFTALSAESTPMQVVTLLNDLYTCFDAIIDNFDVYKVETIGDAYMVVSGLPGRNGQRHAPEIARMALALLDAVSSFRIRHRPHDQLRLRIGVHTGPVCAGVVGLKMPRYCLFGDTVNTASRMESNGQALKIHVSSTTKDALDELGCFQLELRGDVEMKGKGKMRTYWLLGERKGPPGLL
The experiment in a line: cGMP generation in HEK293 cells transfected with human GC-B receptor. The class given is cell-based. The settings on record: vs vehicle; for cGMP generation: HEK293 cells overexpressing human GC-B, 10^-8, 10^-7, 10^-6 M, 10 minutes. An excerpt: (§1) cGMP Generation in HEK293 Cells Transfected with Human GC-B or GC-A Receptor In Vitro: HEK293 cells were stably transfected with either human GC-B or GC-A (cDNA clones from Origene, Rockville, MD) using LIPOFECTAMINE® (Invitrogen, Grand Island, NY). Receptors overexpression was verified with immunofluorescence and western blotting. GC-B/-A transfected HEK293 cells were maintained in Dulbecco's modified Eagle's medium supplemented with 10% fetal bovine serum, 100 U/mL penicillin, 100 U/mL streptomycin, and 250 μg/mL G418. Cells were seeded in 48-well plates and cultured overnight to reach 80-90% confluency. The treatment buffer that includes, Hank's Balanced Salt Solution (HBSS) including 0.1% BSA, 2 mM HEPES and 0.5 mM 3-isobutyl-1-methylzanthine (IBMX—a non-specific phosphodiesterase inhibitor, Sigma, St. Louis, MO), was used in all experiments. HEK293 cells received treatment buffer (vehicle) only was used as a negative control and ANP (10^−8M) was used as a positive control in HEK293 GC-A cells and CNP (10^−8 M) was used as a positive control in HEK293 GC-B cells. Concentrations of CD-NP, CRRL-404, CRRL-405, CRRL-407 or CRRL=408 (10^−8, 10^−7, and 10^−6 M) in HBSS were incubated with HEK293 transfected GC-B or GC-A cells for 10 minutes. After treatment, all cells were washed with phosphate buffered solution (PBS) once and lysed with 0.1M HCl. Intracellular cGMP was measured in the lysate using a commercial cGMP ELISA kit (Enzo Life Sciences, Farmingdale, NY) as instructed by the manufacturer.
(§2) cGMP Assay: The ELISA plate was coated in neutralizing solution (50 μL), prior to addition of samples and standards. Cell lysates (100 μL) and standards (100 μL), in 0.1M HCL, were incubated with cGMP conjugate (50 μL) and cGMP antibody (50 μL) at room temperature for 2 hours, 500 rpm. The plates were washed 4 times and 200 μL of pNPP substrate was added in each well and incubated for 1 hour at room temperature. The reaction was stopped by adding stop solution and absorbance was read at 405 nm and corrected for plate imperfections at 570 nm using SpectramaxM2. Standard curve was generated using the Softmaxpro software and unknown concentrations were extrapolated based on the standard curve. Samples exceeding the standard curve were diluted as needed in 0.1M HCl and corresponding dilution factors were applied to extrapolate final concentrations. The standard curve range is from 0.8 pmol/mL-500 pmol/mL. The % CV at EC50 is 6.6%.

In a further assay the target is T2, human GC-A (Homo sapiens, UniProt P16066).
T2 construct: host or cells: HEK293
T2 sequence (P16066 33-1061): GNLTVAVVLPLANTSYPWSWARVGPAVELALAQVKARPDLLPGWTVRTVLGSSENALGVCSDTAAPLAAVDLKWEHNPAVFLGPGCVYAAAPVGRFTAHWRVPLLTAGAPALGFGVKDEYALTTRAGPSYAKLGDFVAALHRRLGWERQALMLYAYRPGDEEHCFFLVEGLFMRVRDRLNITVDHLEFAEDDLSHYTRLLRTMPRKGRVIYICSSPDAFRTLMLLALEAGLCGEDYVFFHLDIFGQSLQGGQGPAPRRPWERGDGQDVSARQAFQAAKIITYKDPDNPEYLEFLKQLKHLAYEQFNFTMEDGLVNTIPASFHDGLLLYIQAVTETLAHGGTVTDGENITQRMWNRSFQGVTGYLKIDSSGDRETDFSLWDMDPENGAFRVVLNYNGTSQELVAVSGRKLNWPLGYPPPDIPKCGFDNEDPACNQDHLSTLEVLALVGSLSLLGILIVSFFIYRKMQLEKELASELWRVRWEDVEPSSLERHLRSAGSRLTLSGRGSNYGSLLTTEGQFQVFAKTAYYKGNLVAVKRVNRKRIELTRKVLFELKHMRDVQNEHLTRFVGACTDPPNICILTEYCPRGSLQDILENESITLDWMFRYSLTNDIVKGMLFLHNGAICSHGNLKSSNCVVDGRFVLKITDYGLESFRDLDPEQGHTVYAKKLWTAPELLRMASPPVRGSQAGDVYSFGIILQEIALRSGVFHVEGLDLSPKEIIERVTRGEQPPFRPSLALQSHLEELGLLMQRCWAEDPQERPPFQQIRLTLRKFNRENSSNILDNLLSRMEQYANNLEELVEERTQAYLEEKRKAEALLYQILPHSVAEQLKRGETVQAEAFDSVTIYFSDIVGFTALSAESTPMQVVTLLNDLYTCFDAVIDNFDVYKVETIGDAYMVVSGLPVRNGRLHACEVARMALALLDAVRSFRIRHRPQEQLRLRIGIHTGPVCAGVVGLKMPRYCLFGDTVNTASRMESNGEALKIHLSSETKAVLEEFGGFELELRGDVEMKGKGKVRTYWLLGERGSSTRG
The assay is described as follows: cGMP generation in HEK293 cells transfected with human GC-A receptor. Format: cell-based. The settings on record: vs vehicle; for cGMP generation: HEK293 cells overexpressing human GC-A, 10^-8, 10^-7, 10^-6 M, 10 minutes.
From the text: as §1, §2

Assay [1] has as its system human renal fibroblasts (HRFs). The experiment in a line: cGMP generation in human primary renal fibroblasts. The class given is cell-based. The following applies: 10^-8, 10^-7, 10^-6 M, 10 minutes, vs vehicle. As to the method: (§3) cGMP Generation in Human Primary Renal Cells: Human primary renal fibroblasts (HRFs, Cell Biologics, Chicago, IL) and human renal proximal tubular epithelial cells (HRPTCs, ScienCell Research Laboratories, Carlsbad, CA) were maintained and sub-cultured according to the manufacturer's protocols. Briefly, the cells were grown in 6-well plates until 80% confluency and were then treated with treatment buffer (vehicle; HBSS including 0.1% BSA, 2 mM HEPES and 0.5 mM IBMX) alone or with concentrations of CRRL-408 (10^−8, 10^−7 and 10^−6 M) for 10 minutes. Cells were washed with PBS once and lysed with 0.1M HCl. Intracellular cGMP was measured in the lysate using a commercial cGMP ELISA kit (Enzo Life Sciences, Farmingdale, NY) as instructed by the manufacturer described below.
(§4) cGMP Assay: The ELISA plate was coated in neutralizing solution (50 μL), prior to addition of samples and standards. Cell lysates (100 μL) and standards (100 μL), in 0.1M HCL, were incubated with cGMP conjugate (50 μL) and cGMP antibody (50 μL) at room temperature for 2 hours, 500 rpm. The plates were washed 4 times and 200 μL of pNPP substrate was added in each well and incubated for 1 hour at room temperature. The reaction was stopped by adding stop solution and absorbance was read at 405 nm and corrected for plate imperfections at 570 nm using SpectramaxM2. […]

A further assay concerns normal rats. The experiment in a line: Acute IV infusion in vivo study, plasma and urinary cGMP. More on the design: species or system rat. The settings on record: IV infusion 2.12 μg/kg/min, vs vehicle (saline). Here is the method: Acute IV Infusion In Vivo Study: the cGMP generating actions of 2.12 μg/kg/minute dose CRRL-408 or vehicle (0.9% normal saline) [n=4/group] was investigated in normal rats (approximately 2 months old; 200-250 grams; Envigo, East Millstone, NJ). Studies were performed in accordance with the Animal Welfare Act and with approval of the Mayo Clinic Institutional Animal Care and Use Committee.
Rats were anesthetized with isoflurane (2-3% in oxygen) and were subjected to vessel and bladder cannulation for peptide/vehicle infusion, blood sampling and urine collection. A polyethylene (PE)-50 tube catheter was placed into the jugular vein for CRRL-408/vehicle intravenous (IV) infusion. The carotid artery was cannulated with a PE-50 tube catheter for blood sampling. The bladder was accessed and cannulated with a PE-50 tube catheter for passive urine collection. After completion of the above procedural set up, a 30 minute equilibration period was performed that included continuous IV saline infusion. After the 30 minute equilibration period the saline infusion was replaced by a continuous IV infusion (75 min including a 15 minute lead-in period) of 2.12 μg/kg/minute dose of CRRL-408 or vehicle. The infusion rate was weight adjusted and calculated as follows: rat weight (grams)*0.7/60/100 mL/minute. […]

Assay [2] concerns human renal proximal tubular cells (HRPTCs). The assay is described as follows: cGMP generation in human renal proximal tubular epithelial cells. The class given is cell-based. The settings on record: 10^-8, 10^-7, 10^-6 M, 10 minutes, vs vehicle. Here is the method:
as §3, §4

With “ANKKGLSKGCFGLKLDRIGSMSGLGCPSLRDPRPNAPSTSA [CRRL-405]”, the cGMP generation entry on human GC-B and on human GC-A was “stimulated cGMP generation” each time.

As to “ANP: natriuretic peptide used as a positive control in HEK293 GC-A cells [reference compound]”, the “cGMP generation (positive control)” value with human GC-A (HEK293 GC-A cells, 10^-8 M) is “significant cGMP generation response”.

“CNP: C-type natriuretic peptide, used as a positive control in HEK293 GC-B cells [reference compound]”: the “cGMP generation (positive control)” value with human GC-B (HEK293 GC-B cells, 10^-8 M) is “significant cGMP generation response”.

On to “GLSKGCFGLKLDRIGSMSGLGCPSLRDPRPNAP STSA [CD-NP, reference compound]”, for which the cGMP generation entry at human GC-B and on human GC-A was “stimulated cGMP generation” each time.

With “KGANKKGLSKGCFGLKLDRIGSMSGLGCPSLRDPRPNAPSTSA [CRRL-407]”, the cGMP generation result on human GC-B and on human GC-A was “stimulated cGMP generation” throughout.

For the substance “KKGLSKGCFGLKLDRIGSMSGLGCPSLRDPRPNAPSTSA [CRRL-404]”, the cGMP generation entry on human GC-B and on human GC-A was “stimulated cGMP generation” throughout.

Consider “KYKGANKKGLSKGCFGLKLDRIGSMSGLGCPSLRDPRPNAPSTSA [CRRL-408]”, for which the “intracellular cGMP levels” value in assay [1] and in assay [2] was “increased intracellular cGMP levels in a dose dependent manner” throughout. In addition, the cGMP generation result at human GC-B and on human GC-A was “stimulated cGMP generation” each time. For the same substance, the “plasma cGMP” value in the assay with normal rats is listed as “significantly elevated”. Also, the “urinary cGMP” value in the assay with normal rats is “significantly elevated”.
